Several values for one entry are separate records, joined by “and”; a condition that tells them apart may be missing. Equal values may be shown once.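 The compound was tested at five concentrations on cells cultured in 96-well plates, with a 48-hour exposure period. Here, GI50 denotes the concentration required for 50% inhibition of growth. The concentration for full growth arrest is given as TGI.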
How the values were obtained:
Test in all cases: NCI tumour cell line growth inhibition, 48 h
[1] = test system: NCI-H226 lung
[2] = test system: HOP-92 NSCLC
[3] = test system: DLD-1 colon
[4] = test system: SK-OV-3 ovarian
[5] = test system: TK-10 renal
[6] = test system: UO-31 renal
[7] = test system: HT29 colon
[8] = test system: MOLT-4 leukemia
[9] = test system: LXFL 529 NSCLC
[10] = test system: UACC-257 melanoma

Row | Compound | TGI [1] | TGI [2] | TGI [3] | TGI [4] | TGI [5] | TGI [6] | TGI [7] | TGI [8] | TGI [9] | TGI [10] | GI50 [1] | GI50 [2] | GI50 [4] | GI50 [5] | GI50 [6] | GI50 [7] | GI50 [8] | GI50 [10]
1 | CCCCCCc1cc(C(=O)Nc2cccc(C(F)(F)F)c2)nc(N)n1 | > 100 µM | > 100 µM | > 100 µM | > 100 µM | > 100 µM | > 100 µM | > 100 µM | > 100 µM | > 100 µM | > 100 µM | – | – | – | – | – | – | – | –
2 | CCOC(=O)C(=O)Nc1c(CC)cccc1C(C)C | > 100 µM | > 100 µM | > 100 µM | > 100 µM | > 100 µM | > 100 µM | > 100 µM | – | > 100 µM | > 100 µM | – | – | – | – | – | – | – | –
3 | Cc1cc2c(C)n(Cc3ccc(Cl)cc3Cl)nc2c(C#N)c1C | > 56.2 µM | 36.9 µM | > 100 µM | 47.4 µM | 68.4 µM | > 95.3 µM | > 100 µM | > 100 µM | > 100 µM | > 100 µM | – | – | – | – | – | – | – | –
4 | COc1ccc(N=c2ssc3c(=S)ssc23)cc1 | > 100 µM | 70.3 µM | 54.5 µM | > 100 µM | > 100 µM | – | – | 26.9 µM | 31.9 µM | – | – | – | – | – | – | – | – | –
5 | Brc1cccc(C2SCc3nc4ccccc4n32)c1 (configuration not stated) | 27 µM | 35.6 µM | 29.9 µM | 65 µM | 65.1 µM | 25.7 µM | 52.3 µM | > 100 µM | > 100 µM | – | – | – | – | – | – | – | – | –
6 | CCCCCCCCCCCC(=O)OCCOCCOCCOCCOCCOCc1ccc(OC)cc1 | > 100 µM | > 100 µM | > 100 µM | > 100 µM | > 100 µM | > 100 µM | > 100 µM | > 100 µM | > 100 µM | > 100 µM | – | – | – | – | – | – | – | –
7 | O=C1C(=O)N(c2ccc(Cl)c(Cl)c2)C(=O)C(=O)C1c1nc2ccccc2s1 | > 100 µM | > 100 µM | > 100 µM | > 100 µM | > 100 µM | > 100 µM | > 100 µM | > 100 µM | > 100 µM | > 100 µM | – | – | – | – | – | – | – | –
8 | CCOC(=O)C(C)(c1cn(C)c2ccccc12)c1cn(C)c2ccccc12 | > 100 µM | – | > 100 µM | > 100 µM | > 100 µM | > 100 µM | > 100 µM | > 100 µM | > 100 µM | > 100 µM | – | – | – | – | – | – | – | –
9 | CN(C)c1nc(=Nc2ccc3ccccc3c2)ss1 | > 100 µM | – | > 100 µM | > 100 µM | 71.1 µM | > 100 µM | – | 20.9 µM | > 100 µM | 66.8 µM | – | – | – | – | – | – | – | –
10 | CS(=O)(=O)Oc1cccc(/C=N/N=C(\N)NO)c1 | 95.6 µM | > 100 µM | > 100 µM | 70.8 µM | 27.9 µM | > 100 µM | > 100 µM | – | > 100 µM | > 100 µM | – | – | – | – | – | – | – | –
11 | Cn1cnc2nc(Cl)nc(NC(C)(C)C(C)(C)O)c21 | > 100 µM | > 100 µM | > 100 µM | > 100 µM | > 100 µM | > 100 µM | > 100 µM | > 100 µM | – | > 100 µM | – | – | – | – | – | – | – | –
12 | C[Si](C)(C)OC1(C#N)C2C3CC4C2C(=O)C2C4C3C21 (configuration not stated) | > 100 µM | – | > 100 µM | > 100 µM | > 100 µM | > 100 µM | – | > 100 µM | > 100 µM | > 100 µM | – | – | – | – | – | – | – | –
13 | COc1ccc(OC)c(NC(=O)CCC/C(CC(=O)c2ccc(O)c(OC)c2)=N\NC(=O)C[N+](C)(C)C)c1 | > 100 µM | > 100 µM | > 100 µM | > 100 µM | > 100 µM | > 100 µM | > 100 µM | > 100 µM | > 100 µM | > 100 µM | – | – | – | – | – | – | – | –
14 | CC(C)(C)c1ccc(OCCCCCCN2CCNCC2)cc1 | 34.3 µM | 19.7 µM | – | 24.7 µM | 27.8 µM | 25.6 µM | 10.5 µM | 5.07 µM | – | 22.9 µM | 15.3 µM | 3.31 µM | 10.9 µM | 13.9 µM | 12.2 µM | 2.64 µM | 1.82 µM | 10.5 µM
15 | Cc1ccc(C2=NOC3=c4ccccc4=CSC3=C2c2ccc([N+](=O)[O-])cc2)cc1 | 34 µM | 68.2 µM | – | 49 µM | 40.3 µM | > 100 µM | > 100 µM | > 100 µM | – | > 100 µM | 14 µM | 18 µM | 6.91 µM | 13 µM | 27.8 µM | > 100 µM | > 100 µM | 44.4 µM
16 | CCOC(=O)C1=C(NC)OC/C1=N\NC(=O)c1ccccc1O | 60.6 µM | > 100 µM | > 100 µM | > 100 µM | > 100 µM | 26.1 µM | – | > 100 µM | > 100 µM | 17.3 µM | – | – | – | – | – | – | – | –
17 | CC(C)(C)c1n[nH]c(=S)n(/N=C/c2ccc(F)c(Oc3ccccc3)c2)c1=O | > 100 µM | > 100 µM | – | > 100 µM | 91.4 µM | > 100 µM | > 100 µM | > 100 µM | – | 68.4 µM | > 100 µM | 27.3 µM | 38.2 µM | 22.2 µM | 33.9 µM | 43.4 µM | 39.8 µM | 24.2 µM
18 | Cc1c(C#N)c(=O)[nH]c(=O)n1CCN1CCN(C(=O)NCCCCCCNC(=O)N2CCN(CCn3c(C)c(C#N)c(=O)[nH]c3=O)CC2)CC1 | – | > 100 µM | > 100 µM | > 100 µM | > 100 µM | – | > 100 µM | > 100 µM | > 100 µM | > 100 µM | – | – | – | – | – | – | – | –
19 | Cc1ccc(C(=O)Nc2cccc(C(F)(F)F)c2)cc1Nc1nc(-c2cccnc2)nc2c1cnn2C | 7.45 µM and 5.64 µM | 5.13 µM and 5.01 µM | – | 22.2 µM and > 10 µM | 36.6 µM and 6.42 µM | 8.99 µM and 5.11 µM | 35.1 µM and 4.49 µM | 11 µM and > 10 µM | – | 8.28 µM and 4.76 µM | 2.3 µM and 1.63 µM | 1.31 µM and 0.534 µM | 4.48 µM and 3.79 µM | 5.9 µM and 2.1 µM | 1.08 µM and 0.477 µM | 1.48 µM and 0.488 µM | 1.78 µM and 0.886 µM | 2.02 µM and 0.875 µM
20 | O=C(O)C1(P(=O)(O)O)CC1 | – | – | > 100 µM | > 100 µM | > 100 µM | > 100 µM | – | > 100 µM | > 100 µM | > 100 µM | – | – | – | – | – | – | – | –
21 | COc1cccc(NC(=O)c2sc3nc4c(cc3c2N)CN(Cc2ccccc2)CC4)c1 | 38.3 µM | 24.1 µM | – | 14 µM | 21.6 µM | 32.3 µM | 15.2 µM | > 100 µM | – | > 100 µM | 6.03 µM | 2.21 µM | 2.78 µM | 4.82 µM | 3.27 µM | 3.75 µM | 21.9 µM | 6.52 µM
